Consider 1 substance from publication PMC3017052, “A Novel Peptide Derived from Human Apolipoprotein E Is an Inhibitor of Tumor Growth and Ocular Angiogenesis” (PLoS ONE, 2011).

This experiment relates to HUVEC. In kind it is cell-based, human. The source says: The cellular mechanisms of angiogenesis involve motility and alignment of ECs to form a capillary tube-like network on matrigel. Thus, we assessed whether or not apoEdp impaired EC differentiation in the tube formation assay as described in the Materials and Methods. The numbers of tubular structures (Fig. 3A) were quantitatively analyzed. […] “Percentage (%) of inhibition” in Fig. 3C is the mean number (± SEM) of tubules expressed as a proportion of that in the VEGF control group. ** p<0.01 and *** p<0.001.
Figure 3 ApoEdp inhibited capillary tubule formation (in vitro angiogenesis). […] Tubular structures were quantitated by manual counting under low power fields. […] (C) “Percentage (%) of inhibition” is the mean number (± SEM) of tubules expressed as a proportion of that in the VEGF control group. ** p<0.01 and *** p<0.001. […]
Matrigel (Sigma Aldrich, St Louis, MO) was thawed overnight on ice. […] After 12–16 hr, microtubule formation was assessed with an inverted photomicroscope and the images were photographed using Olympus U-RLF-T microscope. Manual counting at low power fields was used to quantitate tubular structures and percentage of inhibition was expressed using VEGF control wells as 100%.

pIC50: −log10 of the molar value.

What is called pIC50 is −log10 of the IC50, conventionally taken in molar units. Low values mean a large IC50, high ones a small IC50. The substance Ac-LRKLRKRLLLRKLRKRLL-NH2 [apoEdp] gave a pIC50 of 5.05.
